Results as given in patent US9765074B2, “Inhibitors of the renal outer medullary potassium channel” (Merck Sharp & Dohme Corp., priority 2013, dated 2017).

Target: T1, hROMK (hKir1.1) (Homo sapiens, UniProt P48048)
T1 construct: expressed in transfected cells
T1 sequence (P48048 1-391): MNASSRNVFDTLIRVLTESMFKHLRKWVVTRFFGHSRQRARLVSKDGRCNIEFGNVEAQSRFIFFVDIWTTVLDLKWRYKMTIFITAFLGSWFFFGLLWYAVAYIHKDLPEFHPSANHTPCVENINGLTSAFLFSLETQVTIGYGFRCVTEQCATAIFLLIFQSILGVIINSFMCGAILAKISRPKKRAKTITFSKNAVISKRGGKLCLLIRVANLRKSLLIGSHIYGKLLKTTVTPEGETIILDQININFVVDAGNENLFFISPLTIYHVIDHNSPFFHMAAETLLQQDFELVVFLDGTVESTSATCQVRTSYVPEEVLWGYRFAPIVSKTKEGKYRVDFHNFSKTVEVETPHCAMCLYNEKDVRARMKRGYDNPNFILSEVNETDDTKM
Assay: Thallium Flux Assay (ROMK channel functional thallium flux, FLIPR-Tetra)
Type: cell-based
Details: HEK293 cells stably expressing hROMK (hKir1.1); 30 min compound incubation
Experimental: The following Thallium Flux Assay was performed on each of the final product compounds in the Examples.
Cell Culture Conditions—HEK293 cells stably expressing hROMK (hKir1.1) were grown at 37° C. in a 10% CO2 humidified incubator in complete growth media: Dulbecco's Modified Eagle Medium supplemented with non-essential amino acids, Penicillin/Streptomycin/Glutamine, G418 and FBS. At >80% confluency, aspirate the media from the flask and rinse with 10 mL Calcium/Magnesium-free PBS. Add 5 mL of 1× trypsin (prepared in Ca/Mg Free PBS) to T-225 flask and return flask to 37° C./CO2 incubator for 2-3 minutes. To dislodge the cell, gently bang the side of the flask with your hand. Triturate the cells completely and then transfer the cells to 25 mL complete media. Centrifuge at 1,500 rpm for 6 min followed by resuspension in complete growth media and determine cell concentration. For typical re-seeding, 4E6 cells/T-225 flask will attain >80% confluency in 4 days. Under ideal growth conditions and appropriate tissue culture practices, this cell line is stable for 40-45 passages. FluxOR Kit Components (Invitrogen F10017) • FluxOR™ Reagent (Component A) • FluxOR™ Assay Buffer (Component B)—10× Concentrate • PowerLoad™ Concentrate (Component C)—100× Concentrate • Probenecid (Component D)—Lyophilized sample is kept at −20° C. Water soluble, 100× after solubilization in 1 mL water. Store at 4° C. • FluxOR™ Chloride-free Buffer (Component E)—5× Concentrate • Potassium sulfate (K2SO4) Concentrate (Component F)—125 mM in water. Store at 4° C. • Thallium sulfate (Tl2SO4) Concentrate (Component G)—50 mM in water. Store at 4° C. • DMSO (dimethyl sulfoxide, Component H)—1 mL (100%) Reagent Preparation: FluxOR Working Solutions • 1000× FluxOR™ Reagent: Reconstitute a vial of component A in 100 μl DMSO; Mix well; Store 10 μl aliquots at −20° C. • 1× FluxOR™ Assay Buffer: Dilute Component B 10-fold with water; Adjust pH to 7.4 with Hepes/NaOH; Filter and store at 4° C. • Probenecid/Assay Buffer: 100 mL of 1× FluxOR™ Assay Buffer; 1 mL of reconstituted component D; Store at 4° C. • Loading Buffer (per microplate): 10 μl 1000× FluxOR™ Reagent; 100 μl component C; 10 mL Probenecid/Assay Buffer • Compound Buffer (per microplate): 20 mL Probenecid/Assay Buffer; 0.3 mM ouabain (10 mM ouabain in water can be stored in amber bottle/aluminum foil at room temperature); Test compound • 1× FluxOR™ Chloride-Free Buffer: Prepare 1× working solution in water. Can be stored at room temperature • Stimulant Buffer (prepared at 5× final concentration in 1× FluxOR™ Chloride-Free Buffer): 7.5 mM Thallium sulfate and 0.75 mM Potassium sulfate (to give a final assay concentration of 3 mM Thallium/0.3 mM Potassium). Store at 4° C. when not in use. If kept sterile, this solution is good for months. Assay Protocol—The ROMK channel functional thallium flux assay is performed in 384 wells, using the FLIPR-Tetra instrument. HEK-hKir1.1 cells are seeded in Poly-D-Lysine microplates and kept in a 37° C.-10% CO2 incubator overnight. On the day of the experiment, the growth media is replaced with the FluxOR™ reagent loading buffer and incubated, protected from light, at ambient temperature (23-25° C.) for 90 min. The loading buffer is replaced with assay buffer±test compound followed by 30 min incubation at ambient temperature, where the Thallium/Potassium stimulant is added to the microplate. Step Protocol • 1. Seed HEK-hKir1.1 cells (50 μl at 20,000 cells/well) in 384-well PDL coated Microplates • 2. Allow cells to adhere overnight in humidified 37° C./10% CO2 incubator • 3. Completely remove cell growth media from microplate and replace with 25 μl loading buffer • 4. Incubate Microplate at room temperature, protected form light, for 90 min • 5. Remove loading buffer and replace with 25 μl 1× Assay Buffer±test compound. • 6. Incubate microplate at room temperature, protected from light, for 30 min • 7. At FLIPR-Tetra 384: Add stimulant (Thallium/Potassium) solution to microplate and monitor fluorescence. […]

Row | SMILES | IC50 [nM]
1 | CC1=C(N2CC(O)C3(CC4CCC(C3)N4C[C@@H](O)c3ccc(-n4cnnn4)nc3)C2=O)COC1=O (single isomer, unassigned) [Example 107] | 110
2 | COC1CN(C2=C(C)C(=O)OC2)C(=O)C12CC1CCC(C2)N1C[C@H](O)c1ccc(-n2cnnn2)nc1 (single isomer, unassigned) [Example 108] | 40
3 | COC1CN(C2=C(C)C(=O)OC2)C(=O)C12CC1CCC(C2)N1C[C@@H](O)c1ccc(-n2cnnn2)nc1 (single isomer, unassigned) [Example 109] | 60
4 | CC1=C(N2CC(O)C3(CCN(C[C@H](O)c4ccc(-n5cnnn5)nc4)CC3)C2=O)COC1=O (single isomer, unassigned) [Example 110] | 120
5 | CC1=C(N2CC(O)C3(CCN(C[C@H](O)c4ccc(-n5cnnn5)nc4)CC3)C2=O)COC1=O (single isomer, unassigned) [Example 111] | 90
6 | CC1=C(N2C(=O)C3(CCN(C[C@H](O)c4cnc(-n5cnnn5)nc4)CC3)CC2C)COC1=O (single isomer, unassigned) [Example 113] | 80
7 | COC1CN(C2=C(C)C(=O)OC2)C(=O)C12CCN(C[C@H](O)c1ccc(-n3cnnn3)nc1)CC2 (single isomer, unassigned) [Example 114] | 60
8 | COC1CN(C2=C(C)C(=O)OC2)C(=O)C12CCN(C[C@H](O)c1ccc(-n3cnnn3)nc1)CC2 (single isomer, unassigned) [Example 115] | 60
9 | CC1=C(N2CCC3(CCN(C[C@H](O)c4ccc(-n5cnnn5)nc4C)CC3F)C2=O)COC1=O (single isomer, unassigned) [Example 117] | 50
10 | CC1=C(N2CCC3(CCN(C[C@H](O)c4ccc(-n5cnnn5)nc4C)CC3F)C2=O)COC1=O (single isomer, unassigned) [Example 118] | 180
11 | CC1=C(N2C(=O)C3(CCN(C[C@H](O)c4ccc(-n5cnnn5)nn4)CC3)CC2C)COC1=O (single isomer, unassigned) [Example 123] | 60
12 | CC1=C(N2C(=O)C3(CCN(C[C@@H](O)c4ccc(-n5cnnn5)nn4)CC3)CC2C)COC1=O (single isomer, unassigned) [Example 124] | 40
13 | CC1=C(N2C(=O)C3(CCN(C[C@H](O)c4ccc(-n5cnnn5)nn4)CC3)CC2C)COC1=O (single isomer, unassigned) [Example 125] | 60
14 | CC1=C(N2C(=O)C3(CCN(C[C@@H](O)c4ccc(-n5cnnn5)nn4)CC3)CC2C)COC1=O (single isomer, unassigned) [Example 126] | 90
15 | CC1=C(N2C(=O)C3(CC2C)CC2CCC(C3)N2C[C@H](O)c2ccc(-n3cnnn3)nc2)COC1=O (single isomer, unassigned) [Example 133] | 10
16 | CC1=C(N2C(=O)C3(CC2C)CC2CCC(C3)N2C[C@@H](O)c2ccc(-n3cnnn3)nc2)COC1=O (single isomer, unassigned) [Example 134] | 60
17 | CC1=C(N2C(=O)C3(CC2C)CC2CCC(C3)N2C[C@H](O)c2ccc(-n3cnnn3)nc2)COC1=O (single isomer, unassigned) [Example 135] | 50
18 | CC1=C(N2C(=O)C3(CC2C)CC2CCC(C3)N2C[C@@H](O)c2ccc(-n3cnnn3)nc2)COC1=O (single isomer, unassigned) [Example 136] | 80
19 | CC1=C(N2C(=O)C3(CCN(C[C@H](O)c4ncc(-n5cnnn5)cc4C)CC3)CC2C)COC1=O (single isomer, unassigned) [Example 137] | 80
20 | CC1=C(N2C(=O)C3(CCN(C[C@@H](O)c4ncc(-n5cnnn5)cc4C)CC3)CC2C)COC1=O (single isomer, unassigned) [Example 138] | 80
21 | CC1=C(N2C(=O)C3(CCN(C[C@H](O)c4ccc(-n5cnnn5)cc4C)CC3)CC2C)COC1=O (single isomer, unassigned) [Example 139] | 40
22 | CC1=C(N2C(=O)C3(CCN(C[C@@H](O)c4ccc(-n5cnnn5)cc4C)CC3)CC2C)COC1=O (single isomer, unassigned) [Example 140] | 10
